Experimental data reported in article PMC4810358, “Applicability of the Rayleigh equation for enantioselective metabolism of chiral xenobiotics by microsomes, hepatocytes and in-vivo retention in rabbit tissues” (Scientific Reports, 2016).

Assay: in vivo stereoselective metabolism of doxazosin, plasma concentration-time profiles (Kong et al.)
Settings: male Sprague–Dawley rats, from Fig. 3 in ref 25, R^2 = 0.92
Excerpt: For example, Sun et al.[26] have reviewed the enantioselective behavior of the fungicide myclobutanil enantiomers in variant rabbit tissues following intravenous administration of the racemic fungicide. Using the plasma concentration-time curves of the two enantiomers (presented in Fig. 1A in ref. [26]) we obtained the enantiomeric enrichment factor of −28 ± 5 (R^2 = 0.97). Analysis of the distribution of myclobutanil in various tissues, presented in Fig. 3 in ref. [26], obtained the enantiomeric enrichment factors of −33 ± 16 (R^2 = 0.92) for the liver, −20 ± 6 (R^2 = 0.97) for the brain, −32 ± 16 (R^2 = 0.89) for the kidney and −21 ± 6 (R^2 = 0.97) for the muscle. […] This quantitative ranking is obscured by the large number of time trace data points in the original presentation. Another example can be presented by the study of Kong et al.[25] reporting on the stereoselective metabolism of the alpha blocker doxazosin (DOX) in vivo in male Sprague–Dawley rats.

Q: For `COc1cc2nc(N3CCN(C(=O)C4COc5ccccc5O4)CC3)nc(N)c2cc1OC` (stereo not shown) [DOX, doxazosin], which enantiomeric enrichment factor is on record?
A: Its enantiomeric enrichment factor is −45 ± 13.
